# Assay results reported in patent publication US9833497B2, “Human originated EGF domain proteins and use of the same” (CHENGDU SOURCEBIO LIMITED-LIABILITY COMPANY, priority 2013, dated 2017).
# Legend:
# Type in all cases: cell-based
# E. coli DH5α = assay: Antibacterial activity: MIC and growth curve against E. coli DH5α in 96-well plate; settings: minimal inhibitory concentration against E. coli DH5α; 96-well plate, 5×10^5 CFU/mL, 37° C., judged after 8 h
# How it was run: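 Log-phase DH5α (OD600 about 0.5, 37° C, 185 rpm in LB) was pelleted, resuspended in fresh LB and seeded at 5×10^5 CFU/mL with recombinant protein at 50, 25 and 12.5 μg/mL (two-fold series), in triplicate. Plates were shaken at 175 rpm, 37° C, and OD600 was read every 30 min. MIC was the lowest concentration with no growth.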
# Moraxella catarrhalis = assay: MIC against Gram-negative bacteria: Moraxella catarrhalis; settings: 10 h cultivation at 37° C., 5×10^5 CFU/mL, two-fold serial dilution
# How it was run: (§1)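 The recombinant human-originated EGF domain proteins were serially diluted two-fold against bacteria at 5×10^5 CFU/mL in LB medium. After shaken incubation at 37° C, the lowest concentration with no bacterial growth was recorded as the MIC.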
# Aeromonas hydrophila = assay: MIC against Gram-negative bacteria: Aeromonas hydrophila; settings: 10 h cultivation at 37° C., 5×10^5 CFU/mL, two-fold serial dilution
# How it was run: as §1
# Enterobacter cloacae = assay: MIC against Gram-negative bacteria: Enterobacter cloacae; settings: 10 h cultivation at 37° C., 5×10^5 CFU/mL, two-fold serial dilution
# How it was run: as §1
# Citrobacter diversus = assay: MIC against Gram-negative bacteria: Citrobacter diversus; settings: 10 h cultivation at 37° C., 5×10^5 CFU/mL, two-fold serial dilution
# How it was run: as §1
# Serratia marcescens = assay: MIC against Gram-negative bacteria: Serratia marcescens; settings: 10 h cultivation at 37° C., 5×10^5 CFU/mL, two-fold serial dilution
# How it was run: as §1
# Proteus vulgaris = assay: MIC against Gram-negative bacteria: Proteus vulgaris; settings: 10 h cultivation at 37° C., 5×10^5 CFU/mL, two-fold serial dilution
# How it was run: as §1
# Proteus mirabilis = assay: MIC against Gram-negative bacteria: Proteus mirabilis; settings: 10 h cultivation at 37° C., 5×10^5 CFU/mL, two-fold serial dilution
# How it was run: as §1
# Klebsiella pneumonia = assay: MIC against Gram-negative bacteria: Klebsiella pneumonia; settings: 10 h cultivation at 37° C., 5×10^5 CFU/mL, two-fold serial dilution
# How it was run: as §1
# Pseudomonas aeruginosa = assay: MIC against Gram-negative bacteria: Pseudomonas aeruginosa; settings: 10 h cultivation at 37° C., 5×10^5 CFU/mL, two-fold serial dilution
# How it was run: as §1
# E. coli BL21 = assay: MIC against Gram-negative bacteria: E. coli BL21; settings: 10 h cultivation at 37° C., 5×10^5 CFU/mL, two-fold serial dilution
# How it was run: as §1
Substance,MIC (E. coli DH5α) [µg/mL],MIC M. catarrhalis (Moraxella catarrhalis) [µg/mL],MIC A. hydrophila (Aeromonas hydrophila) [µg/mL],MIC E. cloacae (Enterobacter cloacae) [µg/mL],MIC C. diversus (Citrobacter diversus) [µg/mL],MIC S. marcescens (Serratia marcescens) [µg/mL],MIC P. vulgaris (Proteus vulgaris) [µg/mL],MIC P. mirabilis (Proteus mirabilis) [µg/mL],MIC K. pneumonia (Klebsiella pneumonia) [µg/mL],MIC P. aeruginosa (Pseudomonas aeruginosa) [µg/mL],MIC E. coli BL21 (E. coli BL21) [µg/mL]
PRT1146 (SIDNCAEPELNSVICLNGGICVDGPGHTFDCRCLPGFSGQFCE; listed as Homo sapiens),50,50,12.5,50,25,12.5,50,12.5,25,12.5,25
PRT1147 (ELDACSFKPCKNNGSCINKRENWDEQAYECVCHPPFTGKNCS; listed as Homo sapiens),50,12.5,25,50,25,25,50,25,12.5,50,12.5
PRT1148 (NINECSSSPCLHGADCEDHINGYVCKCQPGWSGHHCE; listed as Homo sapiens),12.5,12.5,12.5,12.5,12.5,12.5,25,12.5,25,12.5,25
PRT1149 (APSVCQQDVCHNGGTCHAIFLSSGIVSFQCDCPLHFTGRFCE; listed as Homo sapiens),25,50,50,12.5,12.5,50,25,12.5,25,50,25
PRT1150 (HVPWCAHHLCRNNGTCISDNENLFCECPRLYSGK; listed as Homo sapiens),12.5,12.5,50,12.5,25,25,50,25,50,12.5,50
PRT1151 (QFASCENNPCGNGATCVPKSGTDIVCLCPYGRSGPLCT; listed as Homo sapiens),25,25,25,25,12.5,12.5,12.5,50,50,25,12.5
PRT1152 (HASPCSLMKCGNGGTCIESGTSVYCNCTTGWKGSFCT; listed as Homo sapiens),12.5,12.5,12.5,12.5,12.5,50,25,12.5,25,12.5,25
PRT1153 (TVSTCDPEHDPPHHCSRGATCISLPHGYTCFCPLGTTGIYCE; listed as Homo sapiens),12.5,12.5,50,12.5,25,12.5,50,25,50,12.5,50
PRT1154 (DGTACGYNTCRNGGECTVNGTTFSCRCLPDWAGNTCN; listed as Homo sapiens),50,12.5,100,25,12.5,12.5,12.5,12.5,12.5,50,12.5
PRT1155 (QSVSCLNNLCLHQSLCIPDQSFSYSCLCTLGWVGRYCE; listed as Homo sapiens),25,25,25,12.5,12.5,12.5,25,50,12.5,25,12.5
PRT1156 (IIGQCQPHVCFHGNCSNITSNSFICECDEQFSGPFCE; listed as Homo sapiens),50,12.5,50,25,25,50,12.5,50,25,12.5,25
PRT1157 (DVSEFSLVPCQNGTDCIKISNDVMCICSPIFTDLLCK; listed as Homo sapiens),12.5,25,25,12.5,50,50,25,12.5,25,50,25
PRT1158 (IQTSCESFPLRNNATCKKCEKDYPCSCISGFTEKNCE; listed as Homo sapiens),25,50,50,12.5,12.5,25,50,12.5,50,25,12.5
PRT1159 (TTDDQENECQHEAVCKDEINRPRCSCSLSYIGRLCV; listed as Homo sapiens),12.5,25,25,12.5,50,12.5,25,12.5,50,12.5,50
PRT1160 (DTEDCKSASCKNGTTSTHLRGYFFRKCVPGFKGTQCE; listed as Homo sapiens),12.5,12.5,12.5,12.5,25,25,12.5,25,25,12.5,25
PRT1161 (DIDECASHPCKNGATCIDQPGNYFCQCVPPFKVVDGFSCL; listed as Homo sapiens),25,25,25,25,50,50,25,12.5,12.5,12.5,12.5
PRT1162 (DIDDCILNACEHNSTCKDLHLSYQCVCLSDWEGNFCE; listed as Homo sapiens),12.5,12.5,50,12.5,25,25,50,25,50,12.5,50
